# Data taken from PubChem BioAssay AID330 (DTP/NCI, 2004).
# Toxic doses and inconclusive results are not listed.
# System: P388 leukemia ip, CD2F1 mice, survival T/C
# Assay: NCI In Vivo Anticancer Drug Screen. Data for tumor model P388 Leukemia (intraperitoneal) in CD2F1 (CDF1) mice
# Conditions: endpoint: median survival time, higher = longer survival
# Method in brief: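 Mice carrying the transplanted tumor received test compound or vehicle. Survival was recorded in each group, and the value is the treated-group measurement divided by that of the vehicle-treated control group.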
# [1] = dose: 60.0 mg/kg/injection, schedule: Q01DX005 (ip), vehicle: saline with Tween-80
# [2] = dose: 120.0 mg/kg/injection, schedule: Q01DX005 (ip), vehicle: saline with Tween-80
# [3] = dose: 240.0 mg/kg/injection, schedule: Q01DX005 (ip), vehicle: saline with Tween-80
smiles,measurement,setting,value
CN(C)c1ccc(/C=C/c2ccc3ccccc3[n+]2C)cc1,T/C,"dose: 1.0 mg/kg/injection, schedule: Q01DX009 (ip), vehicle: saline sonified",123 % of control
same,T/C,"dose: 1.5 mg/kg/injection, schedule: Q01DX009 (ip), vehicle: saline sonified",123 % of control
same,T/C,"dose: 2.3 mg/kg/injection, schedule: Q01DX009 (ip), vehicle: saline sonified",119 % of control
same,T/C,"dose: 6.25 mg/kg/injection, schedule: Q04DX003 (ip), vehicle: saline sonified",100 % of control
same,T/C,"dose: 12.5 mg/kg/injection, schedule: Q04DX003 (ip), vehicle: saline sonified",109 % of control
same,T/C,"dose: 25.0 mg/kg/injection, schedule: Q04DX003 (ip), vehicle: saline sonified",113 % of control
NC(=O)/C=C\C(=O)NC1CCSC1=O (stereo not drawn),T/C,"dose: 60.0 mg/kg/injection, schedule: Q01DX005 (ip), vehicle: saline + Tween-80 + alcohol",105 % of control
same,T/C,"dose: 120.0 mg/kg/injection, schedule: Q01DX005 (ip), vehicle: saline + Tween-80 + alcohol",94 % of control
same,T/C,"dose: 240.0 mg/kg/injection, schedule: Q01DX005 (ip), vehicle: saline + Tween-80 + alcohol",100 % of control
O/N=C1\CCC2CCCCC2C1 (stereo not drawn),T/C,"dose: 50.0 mg/kg/injection, schedule: Q01DX009 (ip), vehicle: saline",103 % of control
same,T/C,"dose: 100.0 mg/kg/injection, schedule: Q01DX009 (ip), vehicle: saline",103 % of control
same,T/C,"dose: 200.0 mg/kg/injection, schedule: Q01DX009 (ip), vehicle: saline",104 % of control
C1=C\CCCCCCCC/1,T/C,"dose: 1.56 mg/kg/injection, schedule: Q01DX009 (ip), vehicle: saline with Tween-80",100 % of control
same,T/C,"dose: 3.13 mg/kg/injection, schedule: Q01DX009 (ip), vehicle: saline with Tween-80",91 % of control
same,T/C,"dose: 6.25 mg/kg/injection, schedule: Q01DX009 (ip), vehicle: saline with Tween-80",100 % of control
same,T/C,"dose: 6.25 mg/kg/injection, schedule: Q04DX003 (ip), vehicle: saline",109 % of control
same,T/C,"dose: 12.5 mg/kg/injection, schedule: Q04DX003 (ip), vehicle: saline",100 % of control
same,T/C,"dose: 25.0 mg/kg/injection, schedule: Q04DX003 (ip), vehicle: saline",104 % of control
O=C(N/N=C/c1c(O)ccc2ccccc12)C(=O)N/N=C/c1c(O)ccc2ccccc12,T/C,"dose: 12.5 mg/kg/injection, schedule: Q01DX005 (ip), vehicle: saline with Tween-80",97 % of control
same,T/C,"dose: 25.0 mg/kg/injection, schedule: Q01DX005 (ip), vehicle: saline with Tween-80",94 % of control
same,T/C,"dose: 50.0 mg/kg/injection, schedule: Q01DX005 (ip), vehicle: saline with Tween-80",121 % of control
same,T/C,"dose: 100.0 mg/kg/injection, schedule: Q01DX005 (ip), vehicle: saline with Tween-80",186 % of control
Cc1nc2n(c1C(N)=O)CCS2,T/C,"dose: 50.0 mg/kg/injection, schedule: Q01DX001 (ip), vehicle: Klucel (hydroxypropylcellulose) (HPC)",101 % of control
same,T/C,"dose: 60.0 mg/kg/injection, schedule: Q01DX005 (ip), vehicle: Klucel (hydroxypropylcellulose) (HPC)",96 % of control
same,T/C,"dose: 100.0 mg/kg/injection, schedule: Q01DX001 (ip), vehicle: Klucel (hydroxypropylcellulose) (HPC)",106 % of control
same,T/C,"dose: 100.0 mg/kg/injection, schedule: Q04DX002 (ip), vehicle: Klucel (hydroxypropylcellulose) (HPC)",102 % of control
same,T/C,"dose: 120.0 mg/kg/injection, schedule: Q01DX005 (ip), vehicle: Klucel (hydroxypropylcellulose) (HPC)",98 % of control
same,T/C,"dose: 200.0 mg/kg/injection, schedule: Q01DX001 (ip), vehicle: Klucel (hydroxypropylcellulose) (HPC)",99 % of control
same,T/C,"dose: 200.0 mg/kg/injection, schedule: Q04DX002 (ip), vehicle: Klucel (hydroxypropylcellulose) (HPC)",104 % of control
same,T/C,"dose: 240.0 mg/kg/injection, schedule: Q01DX005 (ip), vehicle: Klucel (hydroxypropylcellulose) (HPC)",94 % of control
COc1ccc2nc(Cl)c(Br)c(C)c2c1,T/C,[1],95 % of control
same,T/C,[2],92 % of control
same,T/C,[3],90 % of control
CCC(/C=C/c1ccccc1)=N\Nc1ccc(C)cc1,T/C,[1],107 % of control
same,T/C,[2],117 % of control
same,T/C,[3],114 % of control
c1ccc([P+](COC[P+](c2ccccc2)(c2ccccc2)c2ccccc2)(c2ccccc2)c2ccccc2)cc1,T/C,"dose: 6.25 mg/kg/injection, schedule: Q01DX009 (ip), vehicle: Klucel (hydroxypropylcellulose) (HPC)",92 % of control
same,T/C,"dose: 12.5 mg/kg/injection, schedule: Q01DX009 (ip), vehicle: Klucel (hydroxypropylcellulose) (HPC)",94 % of control
